The values that follow come from publication PMC7221699, “Synthesis and Cytotoxic Analysis of Novel Myrtenyl Grafted Pseudo-Peptides Revealed Potential Candidates for Anticancer Therapy” (Molecules, 2020).

Data set [1] relates to human gastric adenocarcinoma (AGS) cells. Nature of the data set: Sulforhodamine B (SRB) cell cytotoxicity assay, AGS cells. The format is cell-based. Conditions: for viability at 0.24 µg/mL / EC50: Homo sapiens; for viability at 0.24 µg/mL: AGS, 240 ng/mL, Figure 2, read-out: viability (%) in the AGS screen; for viability at 0.24 µg/mL / cytotoxicity against AGS cells at the lowest concentration: 24 h; for cytotoxicity against AGS cells at the lowest concentration: 60 ng/mL; for Emax / EC50: AGS cells; for Emax: maximal drug effect on viability rate, 1 = no effect, 0 = fully cytotoxic; for EC50: 24 h of drug treatment, SRB assay; for cytotoxicity to AGS cells (preliminary screen): 60, 120 and 240 ng/mL, 24 h of incubation. Here is the method: (§1) […] The cell lines were expanded, cultured, and maintained at 37 °C in a humid atmosphere with 5% CO2 in modified Dulbecco’s medium (Thermo Fisher Scientific, Waltham, MA, USA), with 10% FBS (Thermo Fisher Scientific, Waltham, MA, USA) and 100 U/mL of the antibiotic mixture penicillin/streptomycin (Thermo Fisher Scientific, Waltham, MA, USA).
(§2) We evaluated the cytotoxicity effects of novel Myrtenal hybrids against on cells by the sulforhodamine B (SRB) assay. Initially, the cells were seeded in 96-well microplates at a density of 2 × 10^4 cells/well. All compounds were initially dissolved in 100% of methanol and prediluted to reduce methanol concentration to 1% or lower in culture medium and added to the cells at different concentrations for 24 h. Then, cells were fixed by adding 10% (w/v) trichloroacetic acid (TCA) (Winkler) in each well and were stained with 0.057% (w/v) Sulforhodamine B (SRB) (Sigma-Aldrich) in 1% (v/v) acetic acid (Winkler). The bound dye was dissolved in 10 mM Tris base (Sigma-Aldrich), and the absorbance was determined at 510 nm using a multiplate reader (Synergy 2, Biotek Instruments). Percentage cell viability was determined using the formula: […]. The absorbance from the wells of the negative control (1% methanol in culture medium) was considered as the 100% viability. EC50 values were determined by regression analysis (R^2 > 0.95) of the corresponding dose response curves of percentage of cell viability and concentration of the compounds. Emax, the maximum effect of the drug at the highest tested concentration were determined using an online calculator (http://www.grcalculator.org/). Emax lies between 1 and 0; a value of 0 corresponds to a fully cytotoxic response.

For data set [2], the system named is human dermal fibroblast (HDF) cells. Nature of the data set: Sulforhodamine B (SRB) cell cytotoxicity assay, HDF non-cancer cells. It is filed as cell-based. The conditions noted are these: 60, 120 and 240 ng/mL, 24 h. How it is done:
as §1, §2

The test system of data set [3] is human breast adenocarcinoma (MCF-7) cells. Nature of the data set: Sulforhodamine B (SRB) cell cytotoxicity assay, MCF-7 cells. The format is cell-based. Conditions: for EC50: Homo sapiens, MCF7, 24 h of drug treatment, SRB assay; for Emax: maximal drug effect on viability rate, 1 = no effect, 0 = fully cytotoxic. How it is done:
as §1, §2

Data set [4] has as its system human colon adenocarcinoma (HT-29) cells. Put plainly: Sulforhodamine B (SRB) cell cytotoxicity assay, HT-29 cells. Conditions: HT29 cells; for Emax: maximal drug effect on viability rate, 1 = no effect, 0 = fully cytotoxic; for EC50: Homo sapiens, HT-29, 24 h of drug treatment, SRB assay. It is filed as cell-based. Here is the method: as §1, §2
The subject of the next data set is primary CD4+ T cells. Nature of the data set: Viability and cell count of activated CD4+ T lymphocytes per proliferation cycle (flow cytometry). The format is cell-based, human. The conditions noted are these: compounds added at EC25 48 h after activation, incubated four days; for viability of non-proliferating CD4+ T cells: cycle 0 and 1; for viability / number of proliferating CD4+ T cells: cycle 2, 3 and 4. How it is done:
CD4+ T cells were first stained with a cell tracer dye, a fluorescent reagent that diffuses into cells and binds covalently to intracellular amines, and then with a Live/Dead dye that permeates into cells with damaged membranes, while live cells remain unstained. In addition, counting beads were added into each sample to calculate the exact number of cells per cell cycle (Figure 4A). Then, in order to induce proliferation, fluorescent-labelled CD4+ T cells were activated with anti-CD3/CD28 beads, which mimic physiological T cell receptor triggering and co-stimulation in T lymphocytes. After activation, a proportion of cells proliferated, while some stayed in a non-proliferative state. […] Myrtenyl derivatives were added after the second day of culture to evaluate their effect on non-proliferating CD4+ T cells at cycle 0 and 1 and in proliferating cells in cycle 2, 3, and 4. Live CD4+ T cells activated in the presence of five Myrtenyl derivatives were counted and results were normalized with the control sample per cell cycle.
CD4+ T cells were obtained from peripheral blood from healthy volunteers. Blood samples were diluted 1:2 with PBS before adding 50 μL/mL of RosettSep Human CD4+ T cell enrichment cocktail (STEM CELL) for 20 min at room temperature. After incubation, samples were diluted again 1:4 with PBS and CD4+ T cells were obtained directly from the mononuclear fraction obtained after Ficoll–Hypaque density gradient centrifugation. CD4+ T cells were washed twice, counted, and resuspended in PBS. CD4+ T cells were then stained with 1 μM Cell Trace Violet Cell Proliferation Kit (Invitrogen, Thermo Fisher Scientific, Waltham, MA, USA) for 20 min at 37 °C, protected from light. Unbound dye was quenched by adding cold FCS for 5 min at 4 °C. CD4+ T cells were washed two times and resuspended in X–VIVO (Gibco) with IL–2 (50 U/mL, ProLeukin). Cells (2 × 10^5) were activated for 48 h with CD3/CD28 Dynabeads (Invitrogen) prior to adding the compounds. After 48 h, compounds were added (EC25) and incubated for four days. To analyze proliferation and viability, cells were stained with Live/Dead fixable far red dead cell staining kit (Invitrogen) for 30 min at 4 °C and counting beads were added before acquisition. Cells were acquired on an LSRFortessa X20 (BD) within 24 h. Data were analyzed using FlowJo (Tree Star, Inc., Ashland, OR, USA).
(In general: A flow cytometer gives signals particle by particle.)

The viability is a per cent measure of how many cells are alive, often set against a control. On to `C#CCN(C(C)=O)C(C(=O)NC1CCCCC1)C1=CC[C@H]2C[C@@H]1C2(C)C` (mixture of isomers) [1c, N-cyclohexyl-2-((1R,5S)-6,6-dimethylbicyclo[3.1.1]hept-2-en-2-yl)-2-(N-(prop-2-yn-1-yl)acetamido) acetamide], for which the viability at 0.24 µg/mL in data set [1] is 40%.

The term EC50 denotes the concentration giving half of the maximal effect. `CC1(C)[C@H]2CC=C(C(=O)N(CC(=O)NC3CCCCC3)Cc3cn(-c4cccc(Cl)c4)nn3)[C@@H]1C2` [3b, (1R,5S)-N-{[1-(3-chlorophenyl)-1H-1,2,3-triazol-4-yl]methyl}-N-[2-(cyclohexylamino)-2-oxoethyl]-6,6-dimethylbicyclo[3.1.1]hept-2-ene-2-carboxamide]: in data set [1], the “cytotoxicity against AGS cells at the lowest concentration” value (“cytotoxicity against AGS cells” for short) was “high cytotoxicity”, the Emax was found to be 0.2 and the EC50 worked out at 49 ± 8 nM. For the same molecule, in data set [2], the “effect on HDF viability (preliminary screen)” value (“effect on HDF viability” for short) is “without affecting HDF viability”. In addition, in data set [3], the half-maximal effective concentration (EC50) is 24 ± 7 nM and the Emax came out at 0.5. Further, in data set [4], the Emax was 0.4 and the EC50 came out at 21 ± 7 nM. Moreover, in the data set on primary CD4+ T cells, the “viability of non-proliferating CD4+ T cells” value is recorded as “did not reduce viability” and the “viability / number of proliferating CD4+ T cells” value (“viability / number” below) was “able to reduce number of proliferating cells”.

As to `C#CCN(CC(=O)NC1CCCCC1)C(=O)C1=CC[C@H]2C[C@@H]1C2(C)C` [2c, (1R,5S)-N-[2-(cyclohexylamino)-2-oxoethyl]-6,6-dimethyl-N-(prop-2-yn-1-yl)bicyclo[3.1.1]hept-2-ene-2-carboxamide], the viability at 0.24 µg/mL in data set [1] came out at 60%.

In the case of `CC(=O)N(CC#CC#CCN(C(C)=O)C(C(=O)NC1CCCCC1)C1=CC[C@H]2C[C@@H]1C2(C)C)C(C(=O)NC1CCCCC1)C1=CC[C@H]2C[C@@H]1C2(C)C` (mixture of isomers) [4b, 2,2′-[hexa-2,4-diyne-1,6-diylbis(acetylazanediyl)]-bis[N-cyclohexyl-2-((1R,5S)-6,6-dimethylbicyclo[3.1.1]hept-2-en-2-yl)acetamide]], in data set [1], the “cytotoxicity to AGS cells (preliminary screen)” value is “not cytotoxic”.

For the molecule `COc1ccc(-n2cc(CN(CC(=O)NC3CCCCC3)C(=O)C3=CC[C@H]4C[C@@H]3C4(C)C)nn2)cc1` [3c, (1R,5S)-N-[2-(cyclohexylamino)-2-oxoethyl]-N-{[1-(4-methoxyphenyl)-1H-1,2,3-triazol-4-yl]methyl}-6,6-dimethylbicyclo[3.1.1]hept-2-ene-2-carboxamide], in data set [1], the “cytotoxicity against AGS cells” value is listed as “high cytotoxicity”, the Emax came out at 0.1 and the EC50 worked out at 75 nM. Further, the “effect on HDF viability” value in data set [2] is listed as “without affecting HDF viability”. Moreover, in data set [3], the EC50 worked out at 38 nM and the Emax came out at 0.4. Moreover, in data set [4], the Emax stood at 0.4 and the EC50 came out at 38 nM. For the same molecule, in the data set with primary CD4+ T cells, the “viability of non-proliferating CD4+ T cells” value is given as “reduced viability” and the “viability / number” value is “reduced viability”.

As to `CC1(C)[C@H]2CC=C(C(=O)N(CC#CC#CCN(CC(=O)NC3CCCCC3)C(=O)C3=CC[C@H]4C[C@@H]3C4(C)C)CC(=O)NC3CCCCC3)[C@@H]1C2` [4a, (1R,1′R,5S,5′S)-N,N′-(hexa-2,4-diyne-1,6-diyl)-bis{N-[2-(cyclohexylamino)-2-oxoethyl]-6,6-dimethylbicyclo [3.1.1]hept-2-ene-2-carboxamide}], in data set [1], the “cytotoxicity to AGS cells (preliminary screen)” value is “not cytotoxic”.

Regarding `CC(=O)N(Cc1ccccc1)C(C(=O)NC1CCCCC1)C1=CC[C@H]2C[C@@H]1C2(C)C` (stereo partly drawn) [1a, 2-(N-benzylacetamido)-N-cyclohexyl-2-((1R,5S)-6,6-dimethylbicyclo[3.1.1]hept-2-en-2-yl)acetamide], in data set [1], the “cytotoxicity against AGS cells” value is “high cytotoxicity”, the Emax was 0.1 and the EC50 came to 46 nM. Further, the “effect on HDF viability” value in data set [2] is given as “without affecting HDF viability”. In data set [3], the EC50 was 65 nM and the Emax worked out at 0.1. In addition, in data set [4], the Emax was determined as 0.1 and the EC50 amounted to 68 nM. For the same molecule, in the data set on primary CD4+ T cells, the “viability of non-proliferating CD4+ T cells at cycle 0” value was “more cytotoxic than 3c”, the “viability of non-proliferating CD4+ T cells” value is recorded as “reduced viability” and the “viability / number” value was “reduced viability”.

Regarding `Cc1ccc(-n2cc(CN(CC(=O)NC3CCCCC3)C(=O)C3=CC[C@H]4C[C@@H]3C4(C)C)nn2)cc1` [3a, (1R,5S)-N-[2-(cyclohexylamino)-2-oxoethyl]-6,6-dimethyl-N-{[1-(p-tolyl)-1H-1,2,3-triazol-4-yl]methyl} bicyclo[3.1.1]hept-2-ene-2-carboxamide], in data set [1], the “cytotoxicity against AGS cells” value is given as “high cytotoxicity”, the Emax came to 0.1 and the EC50 amounted to 50 nM. Further, the “effect on HDF viability” value in data set [2] is listed as “without affecting HDF viability”. Moreover, in data set [3], the EC50 came to 24 nM and the Emax was found to be 0.3. Also, in data set [4], the Emax was determined as 0.3 and the EC50 was 59 nM. Further, in the data set with primary CD4+ T cells, the “viability of non-proliferating CD4+ T cells at cycle 0” value is “more cytotoxic than 3c”, the “viability of non-proliferating CD4+ T cells” value is listed as “reduced viability” and the “viability / number” value was “reduced viability”.

Regarding `CC(=O)OC[C@@H]1O[C@H](n2cc(CN(CC(=O)NC3CCCCC3)C(=O)C3=CC[C@H]4C[C@@H]3C4(C)C)nn2)[C@@H](OC(C)=O)[C@H](OC(C)=O)[C@H]1OC(C)=O` [3e, (2S,3S,4R,5S,6S)-2-(acetoxymethyl)-6-[4-({(1R,5S)-N-[2-(cyclohexylamino)-2-oxoethyl]-6,6-dimethylbicyclo [3.1.1]hept-2-ene-2-carboxamido}methyl)-1H-1,2,3-triazol-1-yl]tetrahydro-2H-pyran-3,4,5-triyl triacetate], in data set [1], the “cytotoxicity against AGS cells” value was “low activity”.
